The values that follow come from ChEMBL document CHEMBL5634199, “Novel Exatecan-Derived Topoisomerase-1 Inhibitors for Treating Cancer” (ACS Med Chem Lett, 2024).

For the experiment, the system named is JeKo-1. Kind of experiment: Antiproliferative activity against human JeKo-1 cells assessed as reduction in cell viability by Cell-Titer Glo luminescent assay. The format is functional, cell-based.

Broadly, the EC50 is the concentration needed to bring the measured effect to its halfway point. With `CC[C@@]1(O)C(=O)OCc2c1cc1n(c2=O)Cc2c-1nc1cc(F)c(C)c3c1c2[C@@H](NC(=O)C(C)(O)CO)CC3` (stereo partly specified), the EC50 is 1.2 nM. On to `CC[C@@]1(O)C(=O)OCc2c1cc1n(c2=O)Cc2c-1nc1cc(F)c(C)c3c1c2[C@@H](NC(=O)C(F)(F)C(C)O)CC3` (stereo partly specified), for which the EC50 amounted to 1.6 nM. Turning to `CC[C@@]1(O)C(=O)OCc2c1cc1n(c2=O)Cc2c-1nc1cc(F)c(C)c3c1c2[C@@H](NC(=O)C(F)CO)CC3` (stereo partly specified), the EC50 was 1.5 nM. In the case of `CC[C@@]1(O)C(=O)OCc2c1cc1n(c2=O)Cc2c-1nc1cc(F)c(C)c3c1c2[C@@H](NC(=O)[C@@H](O)CO)CC3`, the EC50 came out at 1.4 nM.

In the case of `CC[C@@]1(O)C(=O)OCc2c1cc1n(c2=O)Cc2c-1nc1cc(F)c(C)c3c1c2[C@@H](NC(=O)[C@H](O)CCO)CC3`, the EC50 is 1.4 nM. The result for `CC[C@@]1(O)C(=O)OCc2c1cc1n(c2=O)Cc2c-1nc1cc(F)c(C)c3c1c2[C@@H](NC(=O)C(C)(N)C(F)(F)F)CC3` (stereo partly specified) reads 1.6 nM.
